ChEMBL document CHEMBL5523703, “Modulators for palmitoylation of proteins and small molecules” (Eur J Med Chem, 2024)
Each block holds one molecule with its values, some of them ahead of it.

Key:
[1] = Inhibition of Wnt/beta-catenin signalling in HEK293 cells assessed as reduction in luciferase activity incubated for 24 hrs by TOPFlash luciferase reporter assay; format: cell-based; settings: Homo sapiens, HEK293, 24 h
[2] = test system: HCC4006; assay: cells; settings: Homo sapiens, HCC4006, 24 h
[3] = molecular target: T1, Membrane-bound ghrelin O-acyltransferase MBOAT4 (Mus musculus, UniProt P0C7A3); assay: Inhibition of N-terminal His-tagged mouse GOAT expressed in baculovirus infected insect cells
T1 sequence (P0C7A3 whole entry): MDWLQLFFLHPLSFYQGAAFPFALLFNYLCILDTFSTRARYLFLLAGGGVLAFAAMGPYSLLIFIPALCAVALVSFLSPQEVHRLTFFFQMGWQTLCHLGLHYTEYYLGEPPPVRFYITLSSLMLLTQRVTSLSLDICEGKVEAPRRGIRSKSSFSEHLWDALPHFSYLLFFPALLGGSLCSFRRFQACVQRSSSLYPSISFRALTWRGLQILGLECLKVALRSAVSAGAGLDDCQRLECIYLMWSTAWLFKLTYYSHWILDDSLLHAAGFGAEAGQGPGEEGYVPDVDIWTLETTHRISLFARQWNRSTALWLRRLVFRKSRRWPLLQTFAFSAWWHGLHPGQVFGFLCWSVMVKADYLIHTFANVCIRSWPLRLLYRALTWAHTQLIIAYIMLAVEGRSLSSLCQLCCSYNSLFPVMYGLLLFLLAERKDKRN

[4] = species on record: Homo sapiens; assay: Inhibition of ZDHHC (unknown origin) at 20 uM relative to control
[5] = molecular target: T2, Membrane-bound ghrelin O-acyltransferase MBOAT4 (Homo sapiens, UniProt Q96T53); assay: Inhibition of GOAT (unknown origin)
T2 sequence (Q96T53 whole entry): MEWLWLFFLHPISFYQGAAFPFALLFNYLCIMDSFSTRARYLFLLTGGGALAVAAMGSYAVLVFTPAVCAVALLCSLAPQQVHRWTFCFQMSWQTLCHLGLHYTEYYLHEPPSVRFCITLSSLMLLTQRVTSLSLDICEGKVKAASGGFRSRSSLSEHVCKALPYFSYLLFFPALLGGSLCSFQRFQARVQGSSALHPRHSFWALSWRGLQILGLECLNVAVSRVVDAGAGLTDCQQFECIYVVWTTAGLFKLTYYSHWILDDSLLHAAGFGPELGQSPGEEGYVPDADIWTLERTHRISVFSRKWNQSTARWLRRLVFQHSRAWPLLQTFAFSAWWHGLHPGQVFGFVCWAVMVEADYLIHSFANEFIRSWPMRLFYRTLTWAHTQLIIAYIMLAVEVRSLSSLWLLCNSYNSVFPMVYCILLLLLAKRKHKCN

[6] = molecular target: Acyl-protein thioesterase 2 (Homo sapiens, UniProt O95372); assay: Inhibition of APT2 (unknown origin)
Sequence of Acyl-protein thioesterase 2 (O95372 whole entry): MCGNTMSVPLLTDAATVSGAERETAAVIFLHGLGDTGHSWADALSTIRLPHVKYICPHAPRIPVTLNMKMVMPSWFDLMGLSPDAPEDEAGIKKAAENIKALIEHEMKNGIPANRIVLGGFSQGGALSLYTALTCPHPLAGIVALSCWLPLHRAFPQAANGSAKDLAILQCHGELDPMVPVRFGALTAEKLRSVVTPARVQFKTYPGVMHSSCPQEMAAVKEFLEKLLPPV

[7] = molecular target: Palmitoyltransferase ZDHHC9 (Homo sapiens, UniProt Q9Y397); assay: Binding affinity to ZDHHC9 (unknown origin) assessed as inhibition constant
Sequence of Palmitoyltransferase ZDHHC9 (Q9Y397 whole entry): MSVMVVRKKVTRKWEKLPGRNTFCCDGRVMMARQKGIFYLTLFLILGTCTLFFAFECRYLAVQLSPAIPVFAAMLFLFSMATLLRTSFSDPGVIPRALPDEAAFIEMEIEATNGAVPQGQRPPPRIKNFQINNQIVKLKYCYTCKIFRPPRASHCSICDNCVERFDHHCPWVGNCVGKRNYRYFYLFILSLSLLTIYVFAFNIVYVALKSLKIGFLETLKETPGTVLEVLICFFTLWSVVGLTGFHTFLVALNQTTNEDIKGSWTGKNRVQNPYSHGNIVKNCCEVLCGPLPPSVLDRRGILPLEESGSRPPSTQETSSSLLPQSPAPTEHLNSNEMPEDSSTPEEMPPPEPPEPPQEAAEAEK

[8] = molecular target: Serine palmitoyltransferase 3 (Homo sapiens, UniProt Q9NUV7); assay: Inhibition of SPTLC3 (unknown origin)
Sequence of Serine palmitoyltransferase 3 (Q9NUV7 whole entry): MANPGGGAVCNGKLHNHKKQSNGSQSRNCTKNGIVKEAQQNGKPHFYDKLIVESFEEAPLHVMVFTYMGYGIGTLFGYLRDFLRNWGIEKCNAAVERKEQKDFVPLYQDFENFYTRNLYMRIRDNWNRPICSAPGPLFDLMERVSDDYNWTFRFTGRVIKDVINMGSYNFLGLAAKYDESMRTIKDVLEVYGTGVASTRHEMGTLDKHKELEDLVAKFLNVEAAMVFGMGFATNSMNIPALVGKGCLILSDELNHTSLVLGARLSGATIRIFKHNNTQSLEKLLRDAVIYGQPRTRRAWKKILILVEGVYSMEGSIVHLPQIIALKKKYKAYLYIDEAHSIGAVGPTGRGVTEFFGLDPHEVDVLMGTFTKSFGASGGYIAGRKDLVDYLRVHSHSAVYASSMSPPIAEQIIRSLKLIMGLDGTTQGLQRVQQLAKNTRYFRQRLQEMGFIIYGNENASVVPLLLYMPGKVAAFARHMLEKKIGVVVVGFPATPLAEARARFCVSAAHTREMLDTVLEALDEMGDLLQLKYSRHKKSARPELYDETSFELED

[9] = molecular target: T3, Palmitoyl-protein thioesterase ABHD10, mitochondrial (Homo sapiens, UniProt Q9NUJ1); assay: Inhibition of ABHD10 (unknown origin)
T3 sequence (Q9NUJ1 whole entry): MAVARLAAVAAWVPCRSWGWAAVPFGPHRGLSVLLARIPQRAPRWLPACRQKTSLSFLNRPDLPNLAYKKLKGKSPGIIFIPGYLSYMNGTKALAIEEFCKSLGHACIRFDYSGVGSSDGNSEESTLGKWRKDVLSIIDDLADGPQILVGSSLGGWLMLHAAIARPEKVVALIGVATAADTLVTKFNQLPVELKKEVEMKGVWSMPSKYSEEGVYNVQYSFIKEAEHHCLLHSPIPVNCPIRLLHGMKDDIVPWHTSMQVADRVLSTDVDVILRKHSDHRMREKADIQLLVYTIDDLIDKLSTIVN

[10] = molecular target: Palmitoyltransferase ZDHHC7 (Homo sapiens, UniProt Q9NXF8); assay: Inhibition of ZDHHC7 (unknown origin)
Sequence of Palmitoyltransferase ZDHHC7 (Q9NXF8 whole entry): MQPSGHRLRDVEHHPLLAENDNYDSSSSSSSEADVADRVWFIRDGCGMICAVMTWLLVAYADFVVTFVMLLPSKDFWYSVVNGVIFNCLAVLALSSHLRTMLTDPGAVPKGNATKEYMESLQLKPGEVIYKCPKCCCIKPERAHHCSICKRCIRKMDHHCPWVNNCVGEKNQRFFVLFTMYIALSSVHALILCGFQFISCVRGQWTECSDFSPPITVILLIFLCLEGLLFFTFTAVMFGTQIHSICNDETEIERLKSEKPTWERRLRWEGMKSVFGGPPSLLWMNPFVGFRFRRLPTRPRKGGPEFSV

[11] = Inhibition of SPT (unknown origin); set-up: species or system Homo sapiens
[12] = cells; settings: Homo sapiens, HEK-293T, 24 h
[13] = Inhibition of Wnt/beta-catenin signalling in Wnt3a stimulated HEK293 cells assessed as reduction in luciferase activity incubated for 24 hrs by TOPFlash luciferase reporter assay; format: cell-based; settings: Homo sapiens, HEK293, 24 h

IC50 [1]: 10 nM
SMILES: CC(C)Cc1c(C#N)c(N)nc(SCC(=O)c2ccc(-c3ccccc3)cc2)c1C#N

IC50 [2]: 11 nM
SMILES: Cn1nc(C(F)(F)F)cc1C(=O)N[C@@H]1CCN(C(=O)c2cc(Cl)c3nccnc3c2)C[C@@H]1c1ccccc1

IC50 [2]: 3.9 nM
SMILES: COc1cc(C(=O)N2CC[C@H](NC(=O)c3ccccc3OC(F)(F)F)c3c2cnn3C(C)C)cnc1OC

IC50 [3]: 13100 nM
SMILES: CCCCCCCCN(C(C)=O)C(C(=O)NCc1ccccc1)c1ccc2cc(O)ccc2c1 (configuration not stated)

inhibition [4]: 71.3%
SMILES: N#CCC(=O)NCCc1ccc(OC(=O)c2cccc(Oc3ccccc3)c2)cc1

IC50 [1]: 58 nM
SMILES: COc1ccc(-n2nc(C(=O)NCC(=O)Nc3nc4ccc(OC)cc4s3)c3ccccc3c2=O)cc1

IC50 [5]: 60 nM
SMILES: Cc1nc(N)c(CCC2CCN(C(=O)[C@H](C)NC(=O)c3ccnn3C)CC2)c(Cl)n1

IC50 [6]: 32.4 nM
SMILES: C#CCCCCCCCC[C@@H]1OC(=O)[C@H]1CCCCS(=O)(=O)CCCN(C)C

Ki [7]: 66000 nM
SMILES: CC(C)Cc1ccc(C(C)CN2CCN(CCCC[C@H]3CNCCN3CCc3cc(C(F)(F)F)cc(C(F)(F)F)c3)C[C@@H]2Cc2ccc(O)cc2)cc1 (some centres not stated)

IC50 [1]: 90 nM
SMILES: CCOc1ccc(NC(=O)CSc2nnc(-c3ccncc3)n2-c2ccccc2)cc1

IC50 [8]: 4 nM
SMILES: COc1ccc(C(=O)N2CC[C@H](NC(=O)c3ccccc3Cl)c3c2cnn3C(C)C)cc1OC

IC50 [6]: 64.4 nM
SMILES: C#CCCCN(C)CCCS(=O)(=O)CCCC[C@@H]1C(=O)O[C@H]1CCCCCCCCCC

IC50 [9]: 30 nM
SMILES: CC[C@@]1(c2ccc(C)cc2)C(=O)N(C(=O)OC(C)C)N1C(=O)OC(C)C

IC50 [10]: 38000 nM
SMILES: CCCCCCCCCCCCCCC(Br)C(=O)OC (configuration not stated)

IC50 [3]: 200 nM
SMILES: CCCCCCCC(=O)NC[C@H](NC(=O)[C@H](CO)NC(=O)CN)C(=O)N[C@@H](Cc1ccccc1)C(=O)N[C@@H](CC(C)C)C(=O)N[C@@H](CO)C(=O)N1CCC[C@H]1C(=O)N[C@@H](CCC(=O)O)C(=O)N[C@@H](Cc1cnc[nH]1)C(=O)N[C@@H](CCC(N)=O)C(=O)N[C@@H](CCCCN)C(=O)N[C@@H](C)C(=O)N[C@@H](CCC(N)=O)C(=O)N[C@@H](CCC(N)=O)C(=O)N[C@@H](CCCNC(=N)N)C(=O)N[C@@H](CCCCN)C(=O)N[C@@H](CCC(=O)O)C(=O)N[C@@H](CO)C(=O)N[C@@H](CCCCN)C(=O)N[C@@H](CCCCN)C(=O)N1CCC[C@H]1C(=O)N1CCC[C@H]1C(=O)N[C@@H](C)C(=O)N[C@@H](CCCCN)C(=O)N[C@@H](CC(C)C)C(=O)N[C@@H](CCC(N)=O)C(=O)N1CCC[C@H]1C(=O)N[C@@H](CCCNC(=N)N)C(=O)O

IC50 [3]: 7540 nM
SMILES: CCCCCCN(C(C)=O)C(C(=O)NCc1ccccc1)c1ccc2cc(O)ccc2c1 (configuration not stated)

IC50 [11]: 100 nM
SMILES: CCCCCC[C@@H](O)CCCCCC/C=C/[C@H](OC(C)=O)[C@@H](O)[C@H](O)[C@H](N)C(=O)O

IC50 [12]: 0.064 nM
SMILES: Cc1c(-c2ccnc(C(F)(F)F)c2)ncn1CC(=O)Nc1ccc(-c2cnccn2)cn1 [ZAMAPORVINT]

IC50 [12]: 2.9 nM
SMILES: Cn1c(=O)c2c(ncn2CC(=O)Nc2ccc(-c3ccccc3)nn2)n(C)c1=O [ETC-159]

inhibition [4]: 67.3%
SMILES: C=CC(=O)N(C)CCCCCCCCCCCCCC

IC50 [13]: 0.5 nM
SMILES: C[C@H](C(=O)Nc1ccc(-c2ccsc2)cc1)n1cnc2c1c(=O)n(C)c(=O)n2C

IC50 [8]: 0.8 nM
SMILES: COc1ccc(C(=O)N2CC[C@H](NC(=O)c3ccccc3OC(F)(F)F)c3c2cnn3CCCCCNC(=O)CCC2=[N+]3C(=Cc4c(C)cc(C)n4[B-]3(F)F)C=C2)cc1OC
